Laboratory results reported in patent publication US20070287727A1, “Anti-Nicotine Treatment” (priority 2006, published 2007).

Experiments:
[1] = intramuscular or intravenous injection; cited from earlier work
heavy smokers = test: Treatment of heavy smokers using anticholinergic therapy; type: in vivo, human; settings: heavy smokers unable to visit for a booster
Source text: Some individuals were characterized as heavy smokers and smoked 20 or more cigarettes per day. […] All of these patients received normal supportive treatment by sedative drugs and counseling on coping with and adjusting to addiction.
Booster injections were offered to all patients.

monkeys = settings: cited from earlier work
[2] = tested on: superior cervical ganglia; settings: cited from earlier work

CN1[C@@H]2CC[C@H]1C[C@@H](OC(c1ccccc1)c1ccccc1)C2 [benztropine, 8-azabicyclo [3.2.1]octane, 3-(diphenylmethoxy)-, endo, methanesulfonate]
onset of action [1]: within minutes | patient-reported well-being (heavy smokers; a few weeks after treatment): feeling well | relapse to smoke again (heavy smokers; given during the 5 days after the first injection): no immediate or short term relapse

C[C@H](N)Cc1ccccc1 [d-amphetamine]
effect on smoking (puffing pattern) (monkeys): decreased smoking

CN1CCCC1c1cccnc1 (stereo not shown) [nicotine]
acetylcholinesterase ([2]; after withdrawal of nicotine): about 117 % of controls | acetylcholine increase ([2]; chronic nicotine treatment): about 35%

CN1[C@@H]2C[C@@H](OC(=O)[C@H](CO)c3ccccc3)C[C@H]1[C@@H]1O[C@@H]12 [scopolamine]
effect on smoking (puffing pattern) (monkeys): decreased smoking
